Source: patent US9670261B2 (Sanofi, priority 2012, dated 2017)
*1 amine or outer side, *2 acyl side, *3 side chain or, on linkers, in order; H or OH if unused. Where a SMILES comes first, the peptide text is derived from it. Side-chain parts run from the residue outwards. [ ]: non-standard residue; d: D form. The star is where a group is joined. γGlu = O=C(O)[C@H](CCC(=O)[*:2])N[*:1]; Stearoyl = CCCCCCCCCCCCCCCCCC(=O)*; Palmitoyl = CCCCCCCCCCCCCCCC(=O)*; Aib = CC(C)(N)C(=O)O

Molecular target: T1, human GLP-1 receptor (Homo sapiens, UniProt P43220)
T1 construct: expressed in transfected cells
T1 sequence (P43220 24-463): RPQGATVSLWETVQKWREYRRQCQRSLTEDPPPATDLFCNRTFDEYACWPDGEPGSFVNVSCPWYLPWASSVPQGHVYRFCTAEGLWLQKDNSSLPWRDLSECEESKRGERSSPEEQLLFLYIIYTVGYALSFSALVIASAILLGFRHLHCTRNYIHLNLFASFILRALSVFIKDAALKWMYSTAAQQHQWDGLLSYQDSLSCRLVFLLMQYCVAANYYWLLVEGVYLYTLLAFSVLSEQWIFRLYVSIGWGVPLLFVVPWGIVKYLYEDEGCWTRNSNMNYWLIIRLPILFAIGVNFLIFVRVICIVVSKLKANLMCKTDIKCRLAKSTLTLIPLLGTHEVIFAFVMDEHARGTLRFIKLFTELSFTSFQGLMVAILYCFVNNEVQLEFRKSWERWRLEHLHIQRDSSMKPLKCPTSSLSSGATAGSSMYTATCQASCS
Experiment: cAMP response (HTRF) of HEK-293 cells stably expressing human GLP-1 receptor
Format: cell-based
Details: Table 7; cAMP formation; read-out: EC50 hGLP-1 R
Procedure: cAMP content of cells was determined using a kit from Cisbio Corp. (cat. no. 62AM4PEC) based on HTRF (Homogenous Time Resolved Fluorescence). For preparation, cells were split into T175 culture flasks and grown overnight to near confluency in medium (DMEM/10% FBS). Medium was then removed and cells washed with PBS lacking calcium and magnesium, followed by proteinase treatment with accutase (Sigma-Aldrich cat. no. A6964). Detached cells were washed and resuspended in assay buffer (1×HBSS; 20 mM HEPES, 0.1% BSA, 2 mM IBMX) and cellular density determined. They were then diluted to 400000 cells/ml and 25 μl-aliquots dispensed into the wells of 96-well plates. For measurement, 25 μl of test compound in assay buffer was added to the wells, followed by incubation for 30 minutes at room temperature.

| SMILES | EC50 |
| --- | --- |
| CCCCCCCCCCCCCCCCCC(=O)N[C@@H](CCC(=O)NCCCC[C@H](NC(=O)[C@H](CCC(N)=O)NC(=O)[C@@H](NC(=O)[C@H](CO)NC(=O)[C@H](CC(C)C)NC(=O)[C@H](CC(=O)O)NC(=O)[C@H](CO)NC(=O)[C@@H](NC(=O)[C@H](Cc1ccccc1)NC(=O)[C@@H](NC(=O)CNC(=O)[C@H](CCC(=O)O)NC(=O)C(C)(C)NC(=O)[C@@H](N)Cc1ccc(O)cc1)[C@@H](C)O)[C@@H](C)O)[C@@H](C)CC)C(=O)N[C@@H](CCC(=O)O)C(=O)N[C@@H](CCCCN)C(=O)N[C@@H](CCCNC(=N)N)C(=O)N[C@@H](C)C(=O)N[C@@H](C)C(=O)N[C@@H](CCC(N)=O)C(=O)N[C@@H](CCC(=O)O)C(=O)N[C@@H](Cc1ccccc1)C(=O)N[C@H](C(=O)N[C@@H](CCC(=O)O)C(=O)N[C@@H](Cc1c[nH]c2ccccc12)C(=O)N[C@@H](CC(C)C)C(=O)N[C@@H](CCCCN)C(=O)N[C@@H](CC(N)=O)C(=O)N[C@H](C(=O)NCC(=O)N1CCC[C@H]1C(=O)N[C@@H](CO)C(=O)N[C@@H](CO)C(=O)NCC(=O)N[C@@H](C)C(=O)N1CCC[C@H]1C(=O)N1CCC[C@H]1C(=O)N1CCC[C@H]1C(=O)N[C@@H](CO)C(N)=O)[C@@H](C)O)[C@@H](C)CC)C(=O)O [SEQ ID NO: 19, Y-Aib-E-G-T-F-T-S-D-L-S-I-Q-K(γE-x70)-EKRAAQEFIEWLKNTGPSSGAPPPS-NH2] (H-Y[Aib]EGTFTSDLSIQK([γGlu-Stearoyl])EKRAAQEFIEWLKNTGPSSGAPPPS-NH2) | 4 pM |
| CCCCCCCCCCCCCCCC(=O)N[C@@H](CCC(=O)NCCCC[C@H](NC(=O)[C@H](CCC(N)=O)NC(=O)[C@@H](NC(=O)[C@H](CO)NC(=O)[C@H](CC(C)C)NC(=O)[C@H](CC(=O)O)NC(=O)[C@H](CO)NC(=O)[C@@H](NC(=O)[C@H](Cc1ccccc1)NC(=O)[C@@H](NC(=O)CNC(=O)[C@H](CCC(=O)O)NC(=O)C(C)(C)NC(=O)[C@@H](N)Cc1ccc(O)cc1)[C@@H](C)O)[C@@H](C)O)[C@@H](C)CC)C(=O)N[C@@H](CCC(=O)O)C(=O)N[C@@H](CO)C(=O)N[C@@H](CCCNC(=N)N)C(=O)N[C@@H](C)C(=O)N[C@@H](C)C(=O)NC(C)(C)C(=O)N[C@@H](CC(=O)O)C(=O)N[C@@H](Cc1ccccc1)C(=O)N[C@H](C(=O)N[C@@H](CCC(=O)O)C(=O)N[C@@H](Cc1c[nH]c2ccccc12)C(=O)N[C@@H](CC(C)C)C(=O)N[C@@H](CCCCN)C(=O)N[C@@H](CC(N)=O)C(=O)N[C@H](C(=O)NCC(=O)N1CCC[C@H]1C(=O)N[C@@H](CO)C(=O)N[C@@H](CO)C(=O)NCC(=O)N[C@@H](C)C(=O)N1CCC[C@H]1C(=O)N1CCC[C@H]1C(=O)N1CCC[C@H]1C(=O)N[C@@H](CO)C(N)=O)[C@@H](C)O)[C@@H](C)CC)C(=O)O [SEQ ID NO: 24, Y-Aib-E-G-T-F-T-S-D-L-S-I-Q-K(γE-x53)-E-S-R-A-A-Aib-D-F-I-E-W-L-K-N-T-G-P-S-S-G-A-P-P-P-S-NH2] (H-Y[Aib]EGTFTSDLSIQK([γGlu-Palmitoyl])ESRAA[Aib]DFIEWLKNTGPSSGAPPPS-NH2) | 13.5 pM |
